Experimental data from patent US8580818B2, “Combination drug containing probucol and a tetrazolylalkoxy-dihydrocarbostyril derivative with superoxide supressant effects” (Otsuka Pharmaceutical Co., Ltd., priority 2005, dated 2013).

Experiments:
[1] = test system: atherosclerotic lesion in low-density lipoprotein receptor-knockout mice; assay: Atherosclerosis in low-density lipoprotein receptor-knockout mice fed high cholesterol; assay type: in vivo; details: LDLR-KO mice; for area of atherosclerotic lesion (ratio of Sudan IV stained area to whole aorta), mean±SD: high-fat diet 8 weeks, control 10.1±4.7%; for inhibition of atherosclerotic lesion (in words): Cilostazol 0.3%, Probucol 0.1 and 0.5%, alone or combined, FIG. 2 and FIG. 3
Experimental: Low-density lipoprotein receptor-knockout (LDLR-KO) mice (J. Clin. Invest. 1993; 92: 883-893) (male, 9 weeks old, which was prepared by and kept in Otsuka Pharmaceutical Co, Ltd.) were used. The animals were treated by grouping in the following six groups. Prior to start the experiment, the body weight of the animals and total cholesterol were measured, and based on both data, the animals were divided into six groups in random by stratified randomization method (SAS Software, R8.1). The doses of Probucol and Cilostazol were determined based on the reports (Horm. Metab. Res. 2001; 33: 472-479, and J. Pharmacol. Exp. Ther. 2005; 313: 502-509), respectively. In control group, mice were administered with a high-fat diet [i.e. a conventional feed (CRF-1, manufactured by Oriental Yeast Industries Co., LTD.) supplemented with cholesterol (1.25%), sodium cholate (0.5%) and cacao butter (15%)] and in the test material-administered group, the mice were administered with the high-fat diet combined with Cilostazol (0.3%) and/or Probucol (0.1% or 0.5%). The high-fat diet was administered to the LDLR-KO mice (since 9 weeks old) in order to induce atherosclerosis (in control group). In the test material-administration groups, the high-fat diet mixed with test material was administered to the mice (since 9 weeks old). The mice in both groups were dissected at eighth weeks after starting the administration of the diet. The atherosclerotic lesion was evaluated by picking up whole of the aorta under ether anesthesia, exposing the inner face of aorta and staining the fats with Sudan IV. The area of the atherosclerotic lesion (containing fats/lipids) in whole of the aorta was counted by image analysis of stained area and whole area of the aorta. 1) In order to confirm the synergistic effects of the combination of Cilostazol and Probucol, two-way ANOVA was carried out between the control group and the Cilostazol-administered group as well as between the Probucol-administered group and two agents-administered group, and thereby the interaction was observed. 2) The effects in Cilostazol- and Probucol-administered group were compared with the effects in control group by Dunnett's test. Moreover, the effects in Cilostazol- and Probucol-administered group were compared with the effects in Cilostazol+Probucol-administered group by Dunnett's test. All tests were done by two-sided test with significant level of 5%, by means of SAS Software (SAS Institute Japan, R8.1). The area of atherosclerotic lesion was calculated as the ratio (%) of the area stained by Sudan IV to the area of whole aorta. The mean values±standard deviation were 10.1±4.7% in Control group, 6.6±2.6% in Cilostazol-administered group, 6.2±2.6% in 0.1% Probucol-administered group, 4.7±1.2% in 0.5% Probucol-administered group, 3.8±1.2% in Cilostazol+0.1% Probucol-administered group, and 2.9±1.5% in Cilostazol+0.5% Probucol-administered group.

[2] = test system: focal cerebral ischemic injury in rats; assay: Focal cerebral ischemic injury in rats (transient MCA occlusion, TTC-stained infarct); assay type: in vivo, Sprague-Dawley rats; details: 2-h MCA occlusion/22-h reperfusion, oral, two times at 5 min and 4 h, cilostazol 20 mg/kg, probucol 30 mg/kg, vs vehicle, FIG. 4
Experimental: Male Sprague-Dawley rats weighing 280-320 g were anesthetized with pentobarbital sodium (20 mg/kg, i.p.), and placed on a heating pad (Homeothermic Blanket System, Harvard Apparatus, South Natick, Mass.) to maintain a constant rectal temperature (37±0.5° C.). Systemic arterial blood pressure, arterial blood gas and pH were measured before, during ischemia and after 22-h reperfusion. Focal cerebral ischemia was induced by transient occlusion of the left middle cerebral artery (MCA) as previously described (Stroke 1989; 20:84-91). Surgical nylon suture thread (3-0 in size) with the round tip was advanced from the external carotid artery into the lumen of the internal carotid artery until blocking the flow of the MCA. Two hours after MCA occlusion, reperfusion was allowed by withdrawal of the suture thread until the tip cleared the internal carotid artery. […] The TTC-stained brain slices were photographed using CCD video camera and the size of an infarct was calculated with image analysis system (Image-Pro Plus, Media Cybernetics, Maryland) and expressed as the percentage of infarcted tissue in reference to the ipsilateral hemisphere. […] Data were expressed as mean±S.E.M. The comparison of the results of hemispheric infarct areas between groups is analyzed by repeated measures analysis of variance followed by Tukey's multiple comparison tests as a post hoc comparison. […]

[3] = test system: Otsuka Long-Evans Tokushima Fatty (OLETF) male rats; assay: Urinary excretion of glucose and insulin resistance in OLETF rats on high-fat diet; assay type: in vivo; details: eleventh week; for urinary glucose, mean±SD: 0.3% Cilostazol and/or 0.5% Probucol in diet, control 186±171 mg/dl; for effect on plasma glucose: 0.3% Cilostazol or 0.5% Probucol in diet, control 162±16 mg/dl
Experimental: Otsuka Long-Evans Tokushima Fatty (OLETF) male rats (6 week olds) were divided randomly into the following four groups depending on the body weights by stratified randomized method (using SAS Software, R8.1): Immediately after the randomized grouping, high-fat diet (commercially available feed (CRF-1, manufactured by Oriental Yeast Industries Co., LTD.) supplemented with cholesterol (1.25%), sodium cholate (0.5%) and cacao butter (15%)) was administered to the mice in each group in order to promote the onset of renal disease. In the test-material administered groups, the high-fat diet combined with the test material was administered to each mouse immediately after grouping. In the eleventh week after initiation of feeding, the mice were bled from the tail vein without anesthetization, and the plasma glucose and insulin level in plasma were measured. Separately, the urine was taken, and the urinary glucose was measured. Glucose was measured by an enzymatic method using a commercially available kit for measuring glucose, and the insulin was measured by a commercially available ELISA kit. 1) In order to confirm the synergistic effects of the combination of Cilostazol and Probucol, two-way ANOVA was carried out between the control group and the Cilostazol-administered group as well as between the Probucol-administered group and two agents-administered group, and thereby the interaction was observed. 2) The effects in Cilostazol- and Probucol-administered group were compared with the effects in control group by Dunnett's test. Moreover, the effects in Cilostazol- and Probucol-administered group were compared with the effects in Cilostazol+Probucol-administered group by Dunnett's test. All tests were done by two-sided test with significant level of 5%, by means of SAS Software (SAS Institute Japan, R8.1). The data were shown by mean±SD (n).

Row | Compound | area of atherosclerotic lesion (ratio of Sudan IV stained area to whole aorta), mean±SD ([1]; 0.3% Cilostazol in diet) [%] | inhibition of atherosclerotic lesion (in words) [1] | hemispheric cerebral infarct area (in words) [2] | urinary glucose, mean±SD [3] [mg/dL] | effect on plasma glucose [3] | area of atherosclerotic lesion (ratio of Sudan IV stained area to whole aorta), mean±SD ([1]; 0.1% Probucol in diet) [%] | area of atherosclerotic lesion (ratio of Sudan IV stained area to whole aorta), mean±SD ([1]; 0.5% Probucol in diet) [%]
1 | O=C1CCc2cc(OCCCCc3nnnn3C3CCCCC3)ccc2N1 [Cilostazol, 6-[4-(1-cyclohexyl-1H-tetrazol-5-yl)butoxy]-3,4-dihydrocarbostyril] | 6.6±2.6 | inhibited the atherosclerotic lesion significantly | marginally reduced | 11 ± 2 | neither Cilostazol nor Probucol showed any effect | – | –
2 | CC(C)(Sc1cc(C(C)(C)C)c(O)c(C(C)(C)C)c1)Sc1cc(C(C)(C)C)c(O)c(C(C)(C)C)c1 [Probucol, 4,4′-isopropylidenedithiobis[2,6-di-tert-butylphenol]] | – | inhibited the atherosclerotic lesion significantly | without effect | 11 ± 3 | neither Cilostazol nor Probucol showed any effect | 6.2±2.6 | 4.7±1.2
